Source: PubChem BioAssay (NCI)
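Results reflect a 48-hour exposure of cells in 96-well plates to compound at five concentrations. Here, GI50 denotes the concentration required for 50% inhibition of growth. The concentration for full growth arrest is given as TGI.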

Legend:
Assay in all cases: NCI anticancer screen, dose series, 48 h
OVCAR-5 ovarian = tested on: OVCAR-5 ovarian
UACC-257 melanoma = tested on: UACC-257 melanoma
IGROV1 ovarian = tested on: IGROV1 ovarian
CAKI-1 renal = tested on: CAKI-1 renal
DU-145 prostate = tested on: DU-145 prostate
CCRF-CEM leukemia = tested on: CCRF-CEM leukemia
MDA-MB-231 breast = tested on: MDA-MB-231 breast
NCI-H23 lung = tested on: NCI-H23 lung
UACC-62 melanoma = tested on: UACC-62 melanoma
SK-MEL-2 melanoma = tested on: SK-MEL-2 melanoma
COLO 205 colon = tested on: COLO 205 colon
NCI-H522 lung = tested on: NCI-H522 lung

Structure (SMILES)	TGI (OVCAR-5 ovarian) [µM]	TGI (UACC-257 melanoma) [µM]	TGI (IGROV1 ovarian) [µM]	TGI (CAKI-1 renal) [µM]	TGI (DU-145 prostate) [µM]	TGI (CCRF-CEM leukemia) [µM]	TGI (MDA-MB-231 breast) [µM]	TGI (NCI-H23 lung) [µM]	TGI (UACC-62 melanoma) [µM]	TGI (SK-MEL-2 melanoma) [µM]	TGI (COLO 205 colon) [µM]	TGI (NCI-H522 lung) [µM]	GI50 (DU-145 prostate) [µM]	GI50 (CCRF-CEM leukemia) [µM]	GI50 (NCI-H522 lung) [µM]	GI50 (MDA-MB-231 breast) [µM]	GI50 (NCI-H23 lung) [µM]	GI50 (UACC-62 melanoma) [µM]	GI50 (SK-MEL-2 melanoma) [µM]
CCOC(=O)c1c(NC(=S)Nc2ccc(C)cc2)sc2c1CCN(C)C2	> 100	> 100	> 100	> 100	> 100	> 100	> 100	> 100	> 100	> 100	> 100								
CCOC(=O)C(NC(=O)c1ccc(N=NN(C)C)cc1)C(C)C (centres undefined)	> 100	> 100	> 100	> 100		> 100		> 100	> 100	> 100	> 100	> 100							
COc1cc(/C=C/c2cc(=O)cc(/C=C/c3ccc(O)c(OC)c3)o2)ccc1O	> 100	> 100	> 100	> 100	> 100		> 100	> 100	> 100	> 100	> 100	> 100							
COC(=O)/C=C\S/C(=C(/c1ccccc1)n1ccc(C(=O)OC)n1)c1ccccc1	> 100	> 100	> 100	> 100			70.9	> 100	10.3	59.5	> 100	48							
C/C(=N\Nc1nc2ccccc2s1)c1cccnn1	> 100	> 100	15.5	> 100	> 100		36.2	20.2	20	36.8	> 100	17.7							
COc1cc2nc(-c3c(F)cccc3F)n(Cc3c(F)cccc3F)c2cc1Cc1c(F)cccc1F	> 100	> 100		> 100	> 100	> 100	> 100	> 100	> 100	> 82.2	> 100	> 100							
COc1ccc(CN2C(=O)C(=O)N(C)C2=O)c2ccccc12	> 10		> 10	> 10	> 10	> 10	> 10	> 10	> 10	> 10	> 10	> 10							
O=C1c2c(c3c4ccc(Br)cc4oc3c3[nH]c4ccccc4c23)C(=O)N1O					> 100	> 100	> 100	6.39	3.94	7.23		> 100	3.23	0.0418	1.07	2.48	1.75	1.52	2.34
NS(=O)(=O)c1nnc(NSc2ccc([N+](=O)[O-])cc2)s1	> 100	> 100		> 100	> 100		> 100	> 100	> 100	> 100	> 100	44.3							
CC1=NC(C)(C)N(O)C1(C)C	> 100		> 100		> 100	> 100	> 100	> 100	> 100	> 100	> 100	> 100							
O=CN(O)CC(=O)O	> 100	> 100	> 100		> 100	> 100	> 100	> 100	> 100	> 100	> 100								
CC1=C(C(=O)NNC(=O)CC#N)CC(C(=O)NNC(=O)CC#N)=C(C)N1	> 100	> 100	> 100	> 100	> 100		> 100	> 100		> 100	> 100								
CCOC1NC(=O)c2ccccc21 (centres undefined)	> 100	> 100	> 100		> 100	> 100	> 100	> 100	> 100		> 100	> 100							
Cc1cc2c(cc1Cl)SC(NNc1cnc3ccccc3n1)=NS2(=O)=O	> 100	> 100	> 100	> 100	> 100	> 100	> 100	> 100	> 100		> 100	> 100							
O=c1c(Cc2ccccc2)c(-c2ccccc2)[nH]n1C1=NCCN1	> 100	> 100	> 100	> 100		> 100	> 100	> 100	> 100	> 100	> 100	> 100							
CN1c2ccccc2C(=O)NC12CCN(CC1COc3ccccc3O1)CC2 (centres undefined)	> 100	> 100	> 100		> 100	> 100		> 100	> 100		> 100								
O=C(NN1C(=O)CSC1c1ccc(Cl)c(Cl)c1)c1ccncc1 (centres undefined)	> 100	> 100	> 100	> 100		> 100		> 100	> 100	> 100	> 100	> 100							
OC(c1ccco1)C(F)(F)c1nc2ccccc2o1 (centres undefined)		> 100	> 100	> 100	> 100	> 100	> 100	> 100	> 100	> 100	> 100								
NNC(=O)c1cccc2c1Oc1ccccc1S2		> 100	> 100	> 100	> 100	> 100	> 100	> 100	> 100	> 100	> 100								
COC(=O)C1=C(C(=O)OC)C2(C)CCC(=O)C1O2 (centres undefined)	> 10	> 10	> 10	> 10	> 10	> 10	> 10	> 10	> 10	> 10	> 10								
